Experimental data: PubChem BioAssay AID1963825 (Molecular Pharmacology Branch, DTP, NCI, 2024)
“And” between values parts separate entries of the source, which are not always exact repeats. Equal values may be shown once.

Test: Anticancer human tumor 997537-175-T-J1-PDC patient-derived colon adenocarcinoma cell line growth inhibition [POLQ]
Conditions: 997537-175-T-J1-PDC complex spheroid viability, combination with POLQ inhibitors; for viability, T/C: stronger effect = lower value; active = viability on the fitted dose curve at most 10% of control; inactive = the rest
Procedure, shortened: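 Growth inhibition in 3D: complex spheroids (tumor PDC, HUVEC, MSC) treated with POLQ inhibitor combinations; where Cmax unknown, highest tested concentration 10 microM, except SN-38 at 1 microM.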

[1] = curve of first compound, second compound 0.0316 µM
[2] = curve of first compound, second compound 0.1 µM
[3] = curve of first compound, second compound 0.316 µM
[4] = curve of first compound, second compound 1 µM
[5] = curve of first compound, second compound 3.16 µM
[6] = curve of first compound, second compound 10 µM
[7] = second compound 0.0316 µM, first compound 0.0316 µM
[8] = second compound 0.0316 µM, first compound 0.1 µM
[9] = second compound 0.0316 µM, first compound 0.316 µM
[10] = second compound 0.0316 µM, first compound 1 µM
[11] = second compound 0.0316 µM, first compound 3.16 µM
[12] = second compound 0.0316 µM, first compound 10 µM
[13] = second compound 0.1 µM, first compound 0.0316 µM
[14] = second compound 0.1 µM, first compound 0.1 µM
[15] = second compound 0.1 µM, first compound 0.316 µM
[16] = second compound 0.1 µM, first compound 1 µM
[17] = second compound 0.1 µM, first compound 3.16 µM
[18] = second compound 0.1 µM, first compound 10 µM
[19] = second compound 0.316 µM, first compound 0.0316 µM
[20] = second compound 0.316 µM, first compound 0.1 µM
[21] = second compound 0.316 µM, first compound 0.316 µM
[22] = second compound 0.316 µM, first compound 1 µM
[23] = second compound 0.316 µM, first compound 3.16 µM
[24] = second compound 0.316 µM, first compound 10 µM
[25] = second compound 1 µM, first compound 0.0316 µM
[26] = second compound 1 µM, first compound 0.1 µM
[27] = second compound 1 µM, first compound 0.316 µM
[28] = second compound 1 µM, first compound 1 µM
[29] = second compound 1 µM, first compound 3.16 µM
[30] = second compound 1 µM, first compound 10 µM
[31] = second compound 3.16 µM, first compound 0.0316 µM
[32] = second compound 3.16 µM, first compound 0.1 µM
[33] = second compound 3.16 µM, first compound 0.316 µM
[34] = second compound 3.16 µM, first compound 1 µM
[35] = second compound 3.16 µM, first compound 3.16 µM
[36] = second compound 3.16 µM, first compound 10 µM
[37] = second compound 10 µM, first compound 0.0316 µM
[38] = second compound 10 µM, first compound 0.1 µM
[39] = second compound 10 µM, first compound 0.316 µM
[40] = second compound 10 µM, first compound 1 µM
[41] = second compound 10 µM, first compound 3.16 µM
[42] = second compound 10 µM, first compound 10 µM
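Note: luminescence signal used as a surrogate for viable cells; spheroids exposed to drugs for seven days before readout.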

C#Cc1c(F)ccc2cc(O)cc(-c3ncc4c(N5CC6CCC(C5)N6)nc(OCC56CCCN5CC(F)C6)nc4c3F)c12 (stereo unspecified) + Cc1cccc(N(C)C(=O)C2C(O)CCN2c2nc(C)cc(C(F)(F)F)c2C#N)c1
> 10 µM: IC50 [1] | IC50 [2] | IC50 [3] | IC50 [4] | IC50 [5] | IC50 [6]
inactive: viability, T/C [7] 95.2% | viability, T/C [8] 106% | viability, T/C [9] 89.2% | viability, T/C [10] 107% | viability, T/C [11] 108% | viability, T/C [12] 109% | viability, T/C [13] 99.2% | viability, T/C [14] 102% | viability, T/C [15] 98.2% | viability, T/C [16] 104% | viability, T/C [17] 104% | viability, T/C [18] 108% | viability, T/C [19] 106% | viability, T/C [20] 106% | viability, T/C [21] 91.6% | viability, T/C [22] 91.7% | viability, T/C [23] 121% | viability, T/C [24] 105% | viability, T/C [25] 109% | viability, T/C [26] 107% | viability, T/C [27] 111% | viability, T/C [28] 100% | viability, T/C [29] 98.5% | viability, T/C [30] 102% | viability, T/C [31] 106% | viability, T/C [32] 83.5% | viability, T/C [33] 101% | viability, T/C [34] 112% | viability, T/C [35] 101% | viability, T/C [36] 104% | viability, T/C [37] 99.8% | viability, T/C [38] 88.6% | viability, T/C [39] 101% | viability, T/C [40] 119% | viability, T/C [41] 94.1% | viability, T/C [42] 89%

C#Cc1c(F)ccc2cc(O)cc(-c3ncc4c(N5CC6CCC(C5)N6)nc(OCC56CCCN5CC(F)C6)nc4c3F)c12 (stereo unspecified)
> 10 µM: IC50 (curve of compound)
inactive: viability, T/C (compound 0.0316 µM) 105% and 99.2% and 101% | viability, T/C (compound 0.1 µM) 106% and 111% and 92.5% | viability, T/C (compound 0.316 µM) 92.2% and 97.5% and 113% | viability, T/C (compound 1 µM) 105% and 93.2% and 113% | viability, T/C (compound 3.16 µM) 110% and 93.3% and 94.4% | viability, T/C (compound 10 µM) 106% and 94.6% and 107%

CCc1cc2c(N3CCc4c(cc(Cn5ccnc5)cc4-c4cn(C)nc4C(F)(F)F)C3=O)cc(C)nc2c(OC)n1 + COC1C(OC(N)=O)C(O)C(Oc2ccc3c(O)c(NC(=O)c4ccc(O)c(CC=C(C)C)c4)c(=O)oc3c2C)OC1(C)C
6.36 µM: IC50 [2]
> 10 µM: IC50 [1] | IC50 [3] | IC50 [4] | IC50 [5] | IC50 [6]
inactive: viability, T/C [7] 95.1% | viability, T/C [8] 123% | viability, T/C [9] 88.9% | viability, T/C [10] 95.2% | viability, T/C [11] 69.1% | viability, T/C [12] 55.2% | viability, T/C [13] 106% | viability, T/C [14] 93.3% | viability, T/C [15] 75.1% | viability, T/C [16] 68.8% | viability, T/C [17] 70% | viability, T/C [18] 39.1% | viability, T/C [19] 110% | viability, T/C [20] 107% | viability, T/C [21] 93.5% | viability, T/C [22] 80.7% | viability, T/C [23] 76.1% | viability, T/C [24] 66.7% | viability, T/C [25] 102% | viability, T/C [26] 114% | viability, T/C [27] 86.4% | viability, T/C [28] 61.1% | viability, T/C [29] 64.2% | viability, T/C [30] 60.1% | viability, T/C [31] 113% | viability, T/C [32] 104% | viability, T/C [33] 100% | viability, T/C [34] 68.6% | viability, T/C [35] 49.8% | viability, T/C [36] 65.6% | viability, T/C [37] 92.1% | viability, T/C [38] 88.7% | viability, T/C [39] 74.3% | viability, T/C [40] 66.9% | viability, T/C [41] 54.5% | viability, T/C [42] 59.8%
